Experiments:
Assay type in all cases: functional
Mus musculus [1] = experiment: Antimalarial activity was determined by Blood schizonticidal activity in mice (Mus musculus) infected with Plasmodium berghei K173 at 5 (mg/kg x5) subcutaneous dosage; Cured/treated = 2/6 on day 7
Mus musculus [2] = experiment: Antimalarial activity was determined by blood schizonticidal activity in mice (Mus musculus) infected with Plasmodium berghei K173 at 5 (mg/kg x5) subcutaneous dosage; Cured/treated = 4/6 on day 7
Mus musculus [3] = experiment: Antimalarial activity was determined by Blood schizonticidal activity in mice (Mus musculus) infected with Plasmodium berghei K173 at 5 (mg/kg x5) subcutaneous dosage; Cured/treated = 6/6 on day 7
Mus musculus [4] = experiment: Antimalarial activity was determined by Blood schizonticidal activity in mice (Mus musculus) infected with Plasmodium berghei K173 at 15 (mg/kg x5) peroral dosage; Cured/treated = 19/22 on day 7
Mus musculus [5] = experiment: Antimalarial activity was determined by Blood schizonticidal activity in mice (Mus musculus) infected with Plasmodium berghei NS at 5 (mg/kg x5) subcutaneous dosage; Cured/treated = 22/22
Mus musculus [6] = experiment: Antimalarial activity was determined by blood schizonticidal activity in mice (Mus musculus) infected with Plasmodium berghei NS at 2.5 (mg/kgx5) subcutaneous dosage; Cured/treated = 11/12
Mus musculus [7] = experiment: Antimalarial activity was determined by Blood schizonticidal activity in mice (Mus musculus) infected with Plasmodium berghei NS at 25 (mg/kgx5) peroral dosage; Cured/treated = 6/6
Mus musculus [8] = experiment: Antimalarial activity was determined by Blood schizonticidal activity in mice (Mus musculus) infected with Plasmodium berghei K173 at 2.5 (mg/kgx5) subcutaneous dosage; Cured/treated = 28/28 on day 7
Mus musculus [9] = experiment: Antimalarial activity was determined by blood schizonticidal activity in mice (Mus musculus) infected with Plasmodium berghei K173 at 10 (mg/kgx5) peroral dosage; Cured/treated = 34/39 on day 7
Mus musculus [10] = experiment: Antimalarial activity was determined by Blood schizonticidal activity in mice (Mus musculus) infected with Plasmodium berghei K173 at 1 (mg/kg x5) subcutaneous dosage; Cured/treated = 10/22 on day 7
Mus musculus [11] = experiment: Antimalarial activity was determined by Blood schizonticidal activity in mice (Mus musculus) infected with Plasmodium berghei K173 at 25 (mg/kgx5) peroral dosage; Cured/treated = 16/16
Mus musculus [12] = experiment: Antimalarial activity was determined by blood schizonticidal activity in mice (Mus musculus) infected with Plasmodium berghei K173 at 1.25 (mg/kgx5) subcutaneous dosage; Cured/treated = 26/34 on day 7
Mus musculus [13] = experiment: Antimalarial activity was determined by blood schizonticidal activity in mice (Mus musculus) infected with Plasmodium berghei K173 at 5 (mg/kg x5) subcutaneous dosage; Cured/treated = 6/6
Mus musculus [14] = experiment: Antimalarial activity was determined by Blood schizonticidal activity in mice (Mus musculus) infected with Plasmodium berghei K173 at 25 (mg/kgx5) peroral dosage; Cured/treated = 0/6 on day 7
Mus musculus [15] = experiment: Antimalarial activity was determined by Blood schizonticidal activity in mice (Mus musculus) infected with Plasmodium berghei K173 at 2.5 (mg/kgx5) subcutaneous dosage; Cured/treated = 0/6 on day 7
Mus musculus [16] = experiment: Antimalarial activity was determined by blood schizonticidal activity in mice (Mus musculus) infected with Plasmodium berghei K173 at 10 (mg/kgx5) subcutaneous dosage; Cured/treated = 0/6 on day 7
Mus musculus [17] = experiment: Antimalarial activity was determined by Blood schizonticidal activity in mice (Mus musculus) infected with Plasmodium berghei K173 at 25 (mg/kgx5) subcutaneous dosage; Cured/treated = 4/4
Mus musculus [18] = experiment: Antimalarial activity was determined by Blood schizonticidal activity in mice (Mus musculus) infected with Plasmodium berghei NS at 5 (mg/kg x5) subcutaneous dosage; Cured/treated = 10/10
Mus musculus [19] = experiment: Antimalarial activity was determined by blood schizonticidal activity in mice (Mus musculus) infected with Plasmodium berghei K173 at 25 (mg/kgx5) peroral dosage; Cured/treated = 0/6
Mus musculus [20] = experiment: Antimalarial activity was determined by Blood schizonticidal activity in mice (Mus musculus) infected with Plasmodium berghei K173 at 10 (mg/kgx5) subcutaneous dosage; Cured/treated = 6/6
Mus musculus [21] = experiment: Antimalarial activity was determined by Blood schizonticidal activity in mice (Mus musculus) infected with Plasmodium berghei K173 at 5 (mg/kg x5) subcutaneous dosage; Cured/treated = 0/6 on day 7
Mus musculus [22] = experiment: Antimalarial activity was determined by Blood schizonticidal activity in mice (Mus musculus) infected with Plasmodium berghei K173 at 1.25 (mg/kgx5) subcutaneous dosage; Cured/treated = 30/30 on day 7
Mus musculus [23] = experiment: Antimalarial activity was determined by Blood schizonticidal activity in mice (Mus musculus) infected with Plasmodium berghei K173 at 25 (mg/kgx5) peroral dosage; Cured/treated = 10/12 on day 7
Mus musculus [24] = experiment: Antimalarial activity was determined by blood schizonticidal activity in mice (Mus musculus) infected with Plasmodium berghei NS at 5 (mg/kg x5) subcutaneous dosage; Cured/treated = 19/20 on day 7
Mus musculus [25] = experiment: Antimalarial activity was determined by Blood schizonticidal activity in mice (Mus musculus) infected with Plasmodium berghei NS at 7.5 (mg/kg x5) peroral dosage; Cured/treated = 8/8
Mus musculus [26] = experiment: Antimalarial activity was determined by blood schizonticidal activity in mice (Mus musculus) infected with Plasmodium berghei K173 at 10 (mg/kgx5) peroral dosage; Cured/treated = 0/6 on day 7
Mus musculus [27] = experiment: Antimalarial activity was determined by Blood schizonticidal activity in mice (Mus musculus) infected with Plasmodium berghei NS at 25 (mg/kgx5) peroral dosage; Cured/treated = 0/6
Mus musculus [28] = experiment: Antimalarial activity was determined by Blood schizonticidal activity in mice (Mus musculus) infected with Plasmodium berghei NS at 2.5 (mg/kgx5) subcutaneous dosage; Cured/treated = 11/14
Mus musculus [29] = experiment: Antimalarial activity was determined by Blood schizonticidal activity in mice (Mus musculus) infected with Plasmodium berghei K173 at 20 (mg/kg x5) peroral dosage; Cured/treated = 4/12 on day 7
Mus musculus [30] = experiment: Antimalarial activity was determined by Blood schizonticidal activity in mice (Mus musculus) infected with Plasmodium berghei K173 at 0.625 (mg/kg x5) subcutaneous dosage; Cured/treated = 14/19 on day 7
Mus musculus [31] = experiment: Antimalarial activity was determined by blood schizonticidal activity in mice (Mus musculus) infected with Plasmodium berghei K173 at 25 (mg/kgx5) peroral dosage; Cured/treated = 6/6 on day 7
Mus musculus [32] = experiment: Antimalarial activity was determined by Blood schizonticidal activity in mice (Mus musculus) infected with Plasmodium berghei NS at 2.5 (mg/kgx5) subcutaneous dosage; Cured/treated = 6/6
Mus musculus [33] = experiment: Antimalarial activity was determined by Blood schizonticidal activity in mice (Mus musculus) infected with Plasmodium berghei K173 at 0.625 (mg/kg x5) subcutaneous dosage; Cured/treated = 6/6 on day 7
Mus musculus [34] = experiment: Antimalarial activity was determined by blood schizonticidal activity in mice (Mus musculus) infected with Plasmodium berghei NS at 12.5 (mg/kg x5) peroral dosage; Cured/treated = 2/6
Mus musculus [35] = experiment: Antimalarial activity was determined by Blood schizonticidal activity in mice (Mus musculus) infected with Plasmodium berghei K173 at 12.5 (mg/kg x5) peroral dosage; Cured/treated = 3/6 on day 7
Mus musculus [36] = experiment: Antimalarial activity was determined by blood schizonticidal activity in mice (Mus musculus) infected with Plasmodium berghei K173 at 2.5 (mg/kgx5) subcutaneous dosage; Cured/treated = 0/4 on day 7
Mus musculus [37] = experiment: Antimalarial activity was determined by Blood schizonticidal activity in mice (Mus musculus) infected with Plasmodium berghei K173 at 5 (mg/kg x5) subcutaneous dosage; Cured/treated = 5/5
Mus musculus [38] = experiment: Antimalarial activity was determined by Blood schizonticidal activity in mice (Mus musculus) infected with Plasmodium berghei K173 at 5 (mg/kg x5) subcutaneous dosage; Cured/treated = 0/5 on day 7
Mus musculus [39] = experiment: Antimalarial activity was determined by Blood schizonticidal activity in mice (Mus musculus) infected with Plasmodium berghei K173 at 5 (mg/kg x5) subcutaneous dosage; Cured/treated = 5/6 on day 7
Mus musculus [40] = experiment: Antimalarial activity was determined by blood schizonticidal activity in mice (Mus musculus) infected with Plasmodium berghei NS at 5 (mg/kg x5) subcutaneous dosage; Cured/treated = 16/18 on day 7
Mus musculus [41] = experiment: Antimalarial activity was determined by blood schizonticidal activity in mice (Mus musculus) infected with Plasmodium berghei K173 at 1.25 (mg/kgx5) subcutaneous dosage; Cured/treated = 23/35 on day 7
Mus musculus [42] = experiment: Antimalarial activity was determined by blood schizonticidal activity in mice (Mus musculus) infected with Plasmodium berghei NS at 25 (mg/kgx5) peroral dosage; Cured/treated = 7/12 on day 7
Mus musculus [43] = experiment: Antimalarial activity was determined by Blood schizonticidal activity in mice (Mus musculus) infected with Plasmodium berghei K173 at 2.5 (mg/kgx5) subcutaneous dosage; Cured/treated = 36/36
Mus musculus [44] = experiment: Antimalarial activity was determined by Blood schizonticidal activity in mice (Mus musculus) infected with Plasmodium berghei K173 at 20 (mg/kg x5) peroral dosage; Cured/treated = 34/34

Compound: C[C@@H]1CC[C@@H]2[C@]34OO[C@@](C)(CCC13)O[C@H]4O[C@]2(C)C(=O)Sc1ccccc1 (stereo partly drawn)
- Cured/treated (Mus musculus [1]): 2

Compound: C[C@@H]1CC[C@@H]2[C@]34OO[C@@](C)(CCC13)O[C@H]4O[C@]2(C)C(=O)NCc1ccc(C(F)(F)F)cc1 (stereo partly drawn)
- Cured/treated (Mus musculus [2]): 4

Compound: C[C@@H]1CC[C@@H]2[C@]34OO[C@@](C)(CCC13)O[C@H]4O[C@]2(C)CO/C(S)=N/c1ccccc1 (stereo partly drawn)
- Cured/treated (Mus musculus [3]): 6

Compound: C[C@@H]1CC[C@@H]2[C@]34OO[C@@](C)(CCC13)O[C@H]4O[C@]2(C)CO/C(S)=N/c1ccc(Cl)cc1 (stereo partly drawn)
- Cured/treated (Mus musculus [4]): 19
- Cured/treated (Mus musculus [5]): 22
- Cured/treated (Mus musculus [6]): 11
- Cured/treated (Mus musculus [7]): 6
- Cured/treated (Mus musculus [8]): 28
- Cured/treated (Mus musculus [9]): 34
- Cured/treated (Mus musculus [10]): 10
- Cured/treated (Mus musculus [11]): 16
- Cured/treated (Mus musculus [12]): 26

Compound: C[C@@H]1CC[C@@H]2[C@]34OO[C@@](C)(CCC13)O[C@H]4O[C@]2(C)CO/C(S)=N\c1ccc(F)cc1 (stereo partly drawn)
- Cured/treated (Mus musculus [13]): 6
- Cured/treated (Mus musculus [14]): 0
- Cured/treated (Mus musculus [15]): 0

Compound: C[C@@H]1CCC2[C@]34OOC(C)(CCC13)O[C@H]4O[C@]2(C)C=O (single isomer, unassigned)
- Cured/treated (Mus musculus [16]): 0
- Cured/treated (Mus musculus [17]): 4

Compound: C=CCOC[C@@]1(C)O[C@@H]2OC3(C)CCC4[C@H](C)CC[C@@H]1[C@]42OO3 (single isomer, unassigned)
- Cured/treated (Mus musculus [15]): 0
- Cured/treated (Mus musculus [18]): 10
- Cured/treated (Mus musculus [19]): 0

Compound: C#CCOC[C@@]1(C)O[C@@H]2OC3(C)CCC4[C@H](C)CC[C@@H]1[C@]42OO3 (single isomer, unassigned)
- Cured/treated (Mus musculus [20]): 6
- Cured/treated (Mus musculus [21]): 0

Compound: C[C@H]1[C@@H](OC[C@]2(C)OC3OC4(C)CCC5[C@@H](C)CCC2[C@]35OO4)O[C@@H]2OC3(C)CCC4[C@H](C)CC[C@@H]1[C@]42OO3 (single isomer, unassigned)
- Cured/treated (Mus musculus [22]): 30
- Cured/treated (Mus musculus [23]): 10
- Cured/treated (Mus musculus [24]): 19
- Cured/treated (Mus musculus [25]): 8
- Cured/treated (Mus musculus [26]): 0
- Cured/treated (Mus musculus [27]): 0
- Cured/treated (Mus musculus [28]): 11
- Cured/treated (Mus musculus [29]): 4
- Cured/treated (Mus musculus [30]): 14

Compound: C[C@H]1[C@H](OC[C@]2(C)OC3OC4(C)CCC5[C@@H](C)CCC2[C@]35OO4)O[C@@H]2OC3(C)CCC4[C@H](C)CC[C@@H]1[C@]42OO3 (single isomer, unassigned)
- Cured/treated (Mus musculus [31]): 6
- Cured/treated (Mus musculus [32]): 6
- Cured/treated (Mus musculus [7]): 6
- Cured/treated (Mus musculus [33]): 6
- Cured/treated (Mus musculus [34]): 2
- Cured/treated (Mus musculus [35]): 3

Compound: C[C@@H]1CC[C@@H]2[C@]34OOC(C)(CCC13)O[C@H]4O[C@]2(C)/C=C/c1ccc(C(F)(F)F)cc1 (single isomer, unassigned)
- Cured/treated (Mus musculus [36]): 0
- Cured/treated (Mus musculus [37]): 5

Compound: CCOC(=O)/C=C\[C@@]1(C)O[C@@H]2OC3(C)CCC4[C@H](C)CC[C@@H]1[C@]42OO3 (single isomer, unassigned)
- Cured/treated (Mus musculus [38]): 0

Compound: C[C@@H]1CC[C@@H]2[C@]34OOC(C)(CCC13)O[C@H]4O[C@]2(C)C(=O)OCCCl (single isomer, unassigned)
- Cured/treated (Mus musculus [19]): 0
- Cured/treated (Mus musculus [21]): 0

Compound: Cc1ccc(S(=O)(=O)OC[C@@]2(C)O[C@@H]3OC4(C)CCC5[C@H](C)CC[C@@H]2[C@]53OO4)cc1 (single isomer, unassigned)
- Cured/treated (Mus musculus [39]): 5

Compound: CCO[C@H]1O[C@@H]2O[C@@]3(C)CC[C@H]4[C@H](C)CC[C@@H]([C@H]1C)[C@@]24OO3 [ARTEMOTIL]
- Cured/treated (Mus musculus [40]): 16
- Cured/treated (Mus musculus [41]): 23
- Cured/treated (Mus musculus [42]): 7
- Cured/treated (Mus musculus [43]): 36
- Cured/treated (Mus musculus [44]): 34

Reference: ChEMBL document CHEMBL1128380, “Antimalarial activity of novel ring-contracted artemisinin derivatives” (1995)
